The target of assay [1] is full-length human LSD1 (Homo sapiens (Human), UniProt O60341). Kind of assay: In vitro enzyme inhibition assay LSD-1 (TR-FRET). The following applies: TR-FRET, 0.1 nM LSD1, 50 nM H3K4me1-biotin peptide, 2 μM FAD, pH7.3; read-out: LSD1 IC50. The class given is biochemical. How it is done: This assay determines the ability of a test compound to inhibit LSD1 demethylase activity.
The enzymatic assay of LSD1 activity is based on Time Resolved-Fluorescence Resonance Energy Transfer (TR-FRET) detection.
The ability of the compounds disclosed herein to inhibit LSD1 activity was quantified and the respective IC50 value was determined. Table 5 provides the IC50 values of various substituted heterocyclic compounds disclosed herein.
Background: Time-resolved FRET reads energy transfer from a long-lived donor to a nearby acceptor.

The test system of assay [2] is THP-1 (AML) cells. Nature of the assay: LSD1 CD11b cellular assay (flow cytometry). It counts as cell-based. The following applies: Homo sapiens, 96 h; CD11b expression in THP-1 (AML) cells, flow cytometry, 4 days incubation; read-out: Cellular IC50. In outline: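 THP-1 AML cells treated with serially diluted compound (0.2% DMSO final) for 4 days at 37 °C, 5% CO2. CD11b expression measured by flow cytometry with DAPI staining; IC50 derived from percent CD11b-positive cells versus inhibitor concentration.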
For orientation: Flow cytometry measures light scatter and fluorescence of single cells or particles in a stream.

Usually IC50 stands for the point on the concentration scale where inhibition reaches its midpoint. In the case of `Cn1nnc2cc(-c3cnc(N4CCC(N)CC4)nc3-c3ccc(C#N)cc3)ccc21` [Example 72, 4-[2-(4-aminopiperidin-1-yl)-5-(1-methylbenzotriazol-5-yl)pyrimidin-4-yl]benzonitrile], the IC50 in assay [1] and in assay [2] was < 100 nM in each case.
`Cn1cc2cc(-c3cnc(N4CCC(N)CC4)nc3-c3ccc(C#N)cc3)ncc2n1` [Example 73, 4-[2-(4-aminopiperidin-1-yl)-5-(2-methylpyrazolo[3,4-c]pyridin-5-yl)pyrimidin-4-yl]benzonitrile]: the 50% inhibitory concentration (IC50) in assay [1] is < 100 nM; in assay [2], 100 to 1000 nM.
As to `Cn1cc2ncc(-c3cnc(N4CCC(N)CC4)nc3-c3ccc(C#N)cc3)cc2n1` [Example 76, 4-[2-(4-aminopiperidin-1-yl)-5-(2-methylpyrazolo[4,3-b]pyridin-6-yl)pyrimidin-4-yl]benzonitrile], the IC50 in assay [1] is < 100 nM; in assay [2], 100 to 1000 nM.
Taken in the same sequence, the figures for `Cn1ccc2nc(-c3cnc(N4CCC(N)CC4)nc3-c3ccc(C#N)cc3)ccc21` [Example 77, 4-[2-(4-aminopiperidin-1-yl)-5-(1-methylpyrrolo[3,2-b]pyridin-5-yl)pyrimidin-4-yl]benzonitrile] were < 100 nM and 100 to 1000 nM.
Taken in the same sequence, the figures for `N#Cc1ccc(-c2nc(N3CCC(N)CC3)ncc2-c2cnn(CC3CCOC3)c2)cc1` (stereo not drawn) [Example 78, 4-[2-(4-aminopiperidin-1-yl)-5-[1-(oxolan-3-ylmethyl)pyrazol-4-yl]pyrimidin-4-yl]benzonitrile] were < 100 nM and 100 to 1000 nM.
As to `N#Cc1ccc(-c2nc(N3CCC(N)CC3)ncc2-c2ccc3c(c2)ncn3C(F)F)cc1` [Example 79, 4-[2-(4-aminopiperidin-1-yl)-5-[1-(difluoromethyl)benzimidazol-5-yl]pyrimidin-4-yl]benzonitrile], the concentration for half-maximal inhibition (IC50) in assay [1] and in assay [2] was < 100 nM each time.
As for `N#Cc1ccc(-c2nc(N3CCC(N)CC3)ncc2-c2cnn(CC(F)(F)F)c2)cc1F` [Example 80, 4-[2-(4-aminopiperidin-1-yl)-5-[1-(2,2,2-trifluoroethyl)pyrazol-4-yl]pyrimidin-4-yl]-2-fluorobenzonitrile], the IC50 in assay [1] and in assay [2] was < 100 nM throughout.
As for `COc1ccc(-c2cnc(N3CCC(N)CC3)nc2-c2ccc(C#N)cc2)cc1` [Example 83, 4-[2-(4-aminopiperidin-1-yl)-5-(4-methoxyphenyl)pyrimidin-4-yl]benzonitrile], the half-maximal inhibitory concentration (IC50) in assay [1] and in assay [2] was < 100 nM in each case.
Regarding `COc1ccc(-c2cnc(N3CCC(N)CC3)nc2-c2ccc(C#N)cc2)cc1F` [Example 84, 4-[2-(4-aminopiperidin-1-yl)-5-(3-fluoro-4-methoxyphenyl)pyrimidin-4-yl]benzonitrile], the IC50 in assay [1] and in assay [2] was < 100 nM throughout.
Take `Cn1cc2cc(-c3cnc(N4CCC(N)CC4)nc3-c3ccc(C#N)cc3)cnc2n1` [Example 85, 4-[2-(4-aminopiperidin-1-yl)-5-(2-methylpyrazolo[3,4-b]pyridin-5-yl)pyrimidin-4-yl]benzonitrile]: the half-maximal inhibitory concentration (IC50) was < 100 nM in assay [1] and 100 to 1000 nM in assay [2].
Taken in the same sequence, the figures for `Cn1cnc2cc(-c3cnc(N4CCC(N)CC4)nc3-c3ccc(C#N)c(F)c3)ccc21` [Example 87, 4-[2-(4-aminopiperidin-1-yl)-5-(1-methylbenzimidazol-5-yl)pyrimidin-4-yl]-2-fluorobenzonitrile] were < 100 nM and < 100 nM.
With `CNC1CCN(c2ncc(-c3cnn(CC(F)(F)F)c3)c(-c3ccc(C#N)c(F)c3)n2)CC1` [Example 89, 2-fluoro-4-[2-[4-(methylamino)piperidin-1-yl]-5-[1-(2,2,2-trifluoroethyl)pyrazol-4-yl]pyrimidin-4-yl]benzonitrile], the IC50 in assay [1] and in assay [2] was < 100 nM throughout.
Take `N#Cc1ccc(-c2nc(N3CCC(N)CC3)ncc2-c2ccc3nc[nH]c3c2)cc1` [Example 91, 4-[2-(4-aminopiperidin-1-yl)-5-(3H-benzimidazol-5-yl)pyrimidin-4-yl]benzonitrile]: the half-maximal inhibitory concentration (IC50) is < 100 nM in assay [1] and 100 to 1000 nM in assay [2].
For `Cc1c2cc(-c3cnc(N4CCC(N)CC4)nc3-c3ccc(C#N)c(F)c3)ccc2nn1C` [Example 92, 4-[2-(4-aminopiperidin-1-yl)-5-(2,3-dimethylindazol-5-yl)pyrimidin-4-yl]-2-fluorobenzonitrile], the IC50 in assay [1] and in assay [2] was < 100 nM throughout.
For the compound `Cc1nn(C)c2ccc(-c3cnc(N4CCC(N)CC4)nc3-c3ccc(C#N)c(F)c3)cc12` [Example 93, 4-[2-(4-aminopiperidin-1-yl)-5-(1,3-dimethylindazol-5-yl)pyrmidin-4-yl]-2-fluorobenzonitrile], the half-maximal inhibitory concentration (IC50) in assay [1] and in assay [2] was < 100 nM each time.
With `N#Cc1ccc(-c2nc(N3CCC(N)CC3)ncc2C#CC2(O)CCOC2)cc1F` (stereo not drawn) [Example 94, 4-[2-(4-aminopiperidin-1-yl)-5-[2-(3-hydroxyoxolan-3-yl)ethynyl]pyrimidin-4-yl]-2-fluorobenzonitrile], the IC50 in assay [1] and in assay [2] was < 100 nM throughout.
For `Cn1nc2ccc(-c3cnc(N4CCC(N)CC4)nc3-c3ccc(C#N)c(F)c3)cc2c1N` [Example 95, 4-[5-(3-amino-2-methylindazol-5-yl)-2-(4-aminopiperidin-1-yl)pyrimidin-4-yl]-2-fluorobenzonitrile], the half-maximal inhibitory concentration (IC50) in assay [1] and in assay [2] was < 100 nM in each case.
As to `Cn1nnc2cc(-c3cnc(N4CCC(N)CC4)nc3-c3ccc(C#N)c(F)c3)ccc21` [Example 96, 4-[2-(4-aminopiperidin-1-yl)-5-(1-methylbenzotriazol-5-yl)pyrimidin-4-yl]-2-fluorobenzonitrile], the concentration for half-maximal inhibition (IC50) in assay [1] and in assay [2] was < 100 nM in each case.
With `N#Cc1ccc(-c2nc(N3CCC(N)CC3)ncc2C#CC2(O)CCOCC2)cc1F` [Example 97, 4-[2-(4-aminopiperidin-1-yl)-5-[2-(4-hydroxyoxan-4-yl)ethynyl]pyrimidin-4-yl]-2-fluorobenzonitrile], the IC50 in assay [1] was < 100 nM; in assay [2], 100 to 1000 nM.
`Cn1nncc1C#Cc1cnc(N2CCC(N)CC2)nc1-c1ccc(C#N)c(F)c1` [Example 98]: the half-maximal inhibitory concentration (IC50) was < 100 nM in assay [1] and 100 to 1000 nM in assay [2].
Taken in the same sequence, the figures for `Cn1ccc(C#Cc2cnc(N3CCC(N)CC3)nc2-c2ccc(C#N)c(F)c2)n1` [Example 99, 4-[2-(4-aminopiperidin-1-yl)-5-[2-(1-methylpyrazol-3-yl)ethynyl]pyrimidin-4-yl]-2-fluorobenzonitrile] were < 100 nM and < 100 nM.
Taken in the same sequence, the figures for `Cn1cc(C#Cc2cnc(N3CCC(N)CC3)nc2-c2ccc(C#N)c(F)c2)nn1` [Example 100] were < 100 nM and < 100 nM.
On the same counts, the results for `Cn1ncc2cc(-c3cnc(N4CCC(N)C(O)C4)nc3-c3ccc(C#N)c(F)c3)ccc21` (stereo not drawn) [Example 101, 4-[2-(4-amino-3-hydroxypiperidin-1-yl)-5-(1-methylindazol-5-yl)pyrimidin-4-yl]-2-fluorobenzonitrile] are < 100 nM and < 100 nM.
As for `Cn1cc(C#Cc2cnc(N3CCC(N)CC3)nc2-c2ccc(C#N)c(F)c2)cn1` [Example 102, 4-[2-(4-aminopiperidin-1-yl)-5-[2-(1-methylpyrazol-4-yl)ethynyl]pyrimidin-4-yl]-2-fluorobenzonitrile], the IC50 in assay [1] and in assay [2] was < 100 nM throughout.

The values are drawn from US10131664B2 (Celgene Quanticel Research, Inc., priority 2013, dated 2018).
